From patent US9321743B2, “Compositions and methods of inhibiting N-acylethanolamine-hydrolyzing acid amidase” (The Regents of the University of California, priority 2007, dated 2016)

Experiments:
[1] = test system: carrageenan-induced inflammation; test: mouse carrageenan model (carrageenan-soaked polyethylene sponge implanted under the dorsal skin); assay type: in vivo
From the text: The contribution of endogenous PEA to inflammatory processes remains largely undefined. […] The inventors have previously shown that the proinflammatory phorbol ester, 12-O-tetradecanoylphorbol-13-acetate (TPA), decreases dermal PEA levels following skin inflammation. These findings raised the possibility that reduced PEA levels during inflammation may allow for the progression of the inflammatory process. To further explore this idea, the inventors evaluated the effects of carrageenan-induced inflammation on PEA levels in the mouse. Polyethylene sponges injected with vehicle (10% DMSO in saline) or carrageenan (1%) were surgically implanted under the dorsal skin of mice. After 3 days, the mice were sacrificed and the sponges were removed and analyzed for inflammatory cell infiltration and cellular PEA content. In carrageenan-treated animals the number of infiltrating cells (primarily neutrophils) increased by approximately 3-fold as can be taken from FIG. 2. Here, surgical implantation of vehicle (v) or carrageenan (c) soaked sponges under the dorsal skin of Swiss mice for 3 days (A) increased the number of infiltrating neutrophils and (B) decreased the levels of endogenous cellular PEA. (C) Time course of the effects of vehicle (open symbols) or carrageen (closed symbols) on PEA levels **P<0.01 or ***P<0.001 vs. V, t-test or ANOVA, followed by Dunnett's post-hoc as appropriate (n=6).
As a first step in determining the role of endogenous PEA in inflammation, the inventors examined the effects of local application of PEA on inflammatory responses. Polyethylene sponges injected with vehicle or carrageenan (1%) and either vehicle (10% DMSO in saline) or various doses of PEA (0.1-50 μg) were surgically implanted under the dorsal skin of mice. After 3 days, the mice were killed and the sponges were removed and analyzed for cell infiltration. […] Here panels (A-B) depict the effect of vehicle (open bars), carrageenan (filled bars) or PEA (0.1-50 μg) in Swiss mice, black bars; PEA (50 μg in PPAR-α−/− mice), scored as the number of infiltrating inflammatory cells into a polyethylene sponge (size) injected with vehicle, carrageenan (1%) or PEA, implanted under the dorsal skin of (A) Swiss mice or (B) wildtype C57BL6 mice (+/+) or PPAR-α/− mice for 3 days. **P<0.01 or ***P<0.001 vs. V, ## P<0.01 vs. carrageenan control. ANOVA, followed by Tukey's or Dunnett's post-hoc as appropriate (n=6). Thus, it should be appreciated that peripheral inflammation is associated with decreased PEA synthesis in infiltrating cells, and that restoring PEA levels by exogenous PEA administration reduces inflammatory responses.
Polyethylene sponges (1 cm^3) were injected with either vehicle (100 μl of water:DMSO (9:1), V, open bars), carrageenan (1%, filled bars), URB597 (30 μg), and URB783 (30 μg) as indicated. **P<0.01 or ***P<0.001 vs. V, ## P<0.01 vs. carrageenan control. ANOVA, followed by Tukey's or Dunnett's post-hoc as appropriate (n=5-7).

recombinant NAAA = recombinant NAAA (Rattus norvegicus (Rat), UniProt Q5KTC7); test: NAAA assay; assay type: biochemical; settings: read-out: IC50 of NAAA inhibition
Protocol: Recombinant NAAA or native rat lung NAAA was incubated at 37° C. for 30 min in 0.2 ml of sodium hydrogen phosphate buffer (50 mM, pH 5.0) containing 0.1% Triton X-100, 3 mM dithiothreitol (DTT) and […] heptadecenoylethanolamide as substrate. The reaction was terminated by the addition of 0.2 ml cold methanol containing […] of heptadecanoic acid (HDA, NuChek Prep, Elysian, Minn.). Samples were analyzed by LC/MS (liquid chromatography/mass spectrometry). Heptadecanoic acid was eluted on an XDB Eclipse C18 column isocratically at 2.2 ml/min for 1 min with a solvent mixture of 95% methanol and 5% water, both containing 0.25% acetic acid and 5 mM ammonium acetate. The column temperature was 50° C. ESI was in the negative mode, capillary voltage was 4 kV, and fragmentor voltage was 100 V. N2 was used as drying gas at a flow rate of 13 liters/min and a temperature of 350° C. Nebulizer pressure was set at 60 psi. [M-H]-was monitored in SIM mode using heptadecanoic acid as internal standard. Calibration curves were generated using commercial heptadecenoic acid (Nu-Chek Prep, m/z=267).

spinal cord injury = spinal cord injury (SCI) model, extradural clip compression; assay type: in vivo, mouse; settings: spinal cord tissue 24 hours after SCI, local administration after SCI
Protocol: In the spinal cord injury (SCI) model, extradural compression of a section of the spinal cord exposed via a four-level T5-T8 aminectomy, caused a substantial increase in iNOS expression in the inflammatory cells as well as in nuclei of […] in the white and gray matter of the spinal cord tissues collected from mice 24 hours after SCI. No iNOS staining was detected in the spinal cord obtained from sham mice. […] A typical experimental protocol is described below.
Mice were randomized into 4 groups (n=40 animals/group). Sham animals were subjected to the surgical procedure except that the aneurysm clip was not applied and treated locally at the spinal cord T5-T8 level with vehicle (saline) or 3 (30 μg/mouse) 1 h and 6 h after surgical procedure. […]
Immunohistochemical localization of PAR, nitrotyrosine, FAS-ligand, Bax, Bcl-2 and iNOS. Twenty-four hours after SCI, nitrotyrosine, a specific marker of nitrosative stress, was measured by immunohistochemical analysis in the spinal cord sections to determine the localization of “peroxynitrite formation” and/or other nitrogen derivatives produced during SCI. […] Specific labeling was detected with a biotin-conjugated goat anti-rabbit IgG and avidin-biotin peroxidase complex ([…]). […]

[2] = 30 μg in sponge, 3 days, Swiss mice

Sequence of recombinant NAAA (Q5KTC7 34-362): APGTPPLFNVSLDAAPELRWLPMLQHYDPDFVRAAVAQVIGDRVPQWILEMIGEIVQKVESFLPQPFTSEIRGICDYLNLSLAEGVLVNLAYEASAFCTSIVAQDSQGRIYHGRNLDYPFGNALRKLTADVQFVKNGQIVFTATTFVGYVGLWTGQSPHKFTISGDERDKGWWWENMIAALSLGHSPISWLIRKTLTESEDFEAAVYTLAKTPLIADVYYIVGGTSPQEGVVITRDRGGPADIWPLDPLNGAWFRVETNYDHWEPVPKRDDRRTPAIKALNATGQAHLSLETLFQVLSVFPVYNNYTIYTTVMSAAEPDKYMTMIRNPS

In the case of `CCCCCCCCCCCCCCCC(=O)NCCO` [PEA, N-palmitoylethanolamine, reference compound], the “number of infiltrating cells and edema in PPAR-α-null animals” value ([1]; PEA 50 μg, PPAR-α-null mice) is reported as “had no effect”, the “number of infiltrating cells” value ([1]; PEA 0.1-50 μg in sponge, 3 days, wild-type mice) is reported as “dose-dependently reduced” and the edema ([1]; PEA in sponge, wild-type mice, data not shown) is reported as “dose-dependently reduced”.
`NC(=O)c1cccc(-c2cccc(OC(=O)NC3CCCCC3)c2)c1` [URB597, reference compound] was tested, and the anti-inflammatory effect ([1]; 30 μg in sponge, 3 days) was “no anti-inflammatory effect”.
For `O=C(CCc1ccccc1)N[C@H]1COC1=O` [URB783, (S)—N-(2-oxooxetan-3-yl)-3-phenylpropionamide], the IC50 (recombinant NAAA) was 0.42 ± 0.02 µM, the “expression of iNOS” value (spinal cord injury) was “significant reduction” and the “other markers of inflammation and cell apoptosis (PAR, nitrotyrosine, Fas-ligand, Bax, Bcl-2, TUNEL)” value (spinal cord injury) was “significant reduction”. The “endogenous PEA levels” value [1, 2] was “restored PEA to basal levels”, the “number of infiltrating cells” value [1, 2] was “significantly reduced” and the “anti-inflammatory effects in PPAR-α null mice” value ([1]; PPAR-α null mice) was “absent”. The exudates volume ([1]; in sponge, data not shown) was “significantly reduced”.
With `O=C(N[C@H]1COC1=O)c1ccc(-c2ccccc2)cc1` [URB894, (S)—N-(2-oxooxetan-3-yl)biphenyl-4-carboxamide] the IC50 (recombinant NAAA) was 0.115 ± 0.013 µM.
